Laboratory results from the NIST ThermoML archive (doi:10.1016/j.jct.2009.08.002).
± gives the expanded uncertainty stated by the source.

Assay: molar heat capacity at constant pressure; xn = mol fraction of the nth substance listed
Conditions: Liquid, Large sample (1 g) DSC

CCCCCCn1cc[n+](C)c1.F[B-](F)(F)F [1-hexyl-3-methylimidazolium tetrafluoroborate] + CC#N
molar heat capacity at constant pressure [J/K/mol]
Conditions	283.15 K	288.15 K	293.15 K	298.15 K	303.15 K	308.15 K	313.15 K	318.15 K	323.15 K
x1 = 0.0648	110.9 ± 1.7	111.2 ± 1.7	111.6 ± 1.7	112.1 ± 1.7	112.5 ± 1.7	113 ± 1.8	113.5 ± 1.8	114 ± 1.8	114.6 ± 1.8
x1 = 0.1342	133.5 ± 2.1	134 ± 2.1	134.5 ± 2.1	135 ± 2.1	135.6 ± 2.1	136.2 ± 2.1	136.8 ± 2.1	137.4 ± 2.1	138.1 ± 2.1
x1 = 0.2127	159.4 ± 2.5	160 ± 2.5	160.7 ± 2.5	161.4 ± 2.5	162.1 ± 2.5	162.9 ± 2.5	163.7 ± 2.5	164.5 ± 2.6	165.3 ± 2.6
x1 = 0.2732	179.6 ± 2.8	180.3 ± 2.8	181.1 ± 2.8	181.8 ± 2.8	182.7 ± 2.8	183.6 ± 2.8	184.5 ± 2.9	185.5 ± 2.9	186.6 ± 2.9
x1 = 0.3828	216.5 ± 3.4	217.5 ± 3.4	218.5 ± 3.4	219.6 ± 3.4	220.7 ± 3.4	221.8 ± 3.4	223 ± 3.5	224.2 ± 3.5	225.5 ± 3.5
x1 = 0.5367	268.5 ± 4.2	269.8 ± 4.2	271.2 ± 4.2	272.6 ± 4.2	274 ± 4.2	275.6 ± 4.3	277.2 ± 4.3	278.8 ± 4.3	280.5 ± 4.3
x1 = 0.7064	326.1 ± 5.1	327.7 ± 5.1	329.4 ± 5.1	331.2 ± 5.1	333.1 ± 5.2	335.1 ± 5.2	337.1 ± 5.2	339.2 ± 5.3	341.4 ± 5.3
x1 = 0.8344	369.2 ± 5.7	371.2 ± 5.8	373.2 ± 5.8	375.3 ± 5.8	377.4 ± 5.8	379.7 ± 5.9	382 ± 5.9	384.5 ± 6	387 ± 6
x1 = 1	425 ± 6.6	427.2 ± 6.6	429.6 ± 6.7	432 ± 6.7	434.6 ± 6.7	437.2 ± 6.8	440 ± 6.8	442.9 ± 6.9	445.8 ± 6.9

CCCCCCCC[n+]1ccn(C)c1.F[B-](F)(F)F [1-methyl-3-octylimidazolium tetrafluoroborate] + CC#N
molar heat capacity at constant pressure [J/K/mol]
Conditions	x1 = 0.0359	x1 = 0.1135	x1 = 0.1694	x1 = 0.2341	x1 = 0.3023	x1 = 0.4285	x1 = 0.5437	x1 = 0.6829	x1 = 0.8425	x1 = 1
283.15 K	103.7 ± 1.6	133.5 ± 2.1	155.3 ± 2.4	181 ± 2.8	208.3 ± 3.2	259.1 ± 4	305.8 ± 4.7	362.2 ± 5.6	426.5 ± 6.6	489.8 ± 7.6
288.15 K	104 ± 1.6	133.9 ± 2.1	155.9 ± 2.4	181.7 ± 2.8	209.1 ± 3.2	260.4 ± 4	307.3 ± 4.8	364.1 ± 5.6	428.9 ± 6.6	492.6 ± 7.6
293.15 K	104.4 ± 1.6	134.4 ± 2.1	156.5 ± 2.4	182.4 ± 2.8	210 ± 3.3	261.7 ± 4.1	308.9 ± 4.8	366 ± 5.7	431.3 ± 6.7	495.4 ± 7.7
298.15 K	104.8 ± 1.6	135 ± 2.1	157.1 ± 2.4	183.2 ± 2.8	210.9 ± 3.3	263 ± 4.1	310.5 ± 4.8	368 ± 5.7	433.7 ± 6.7	498.3 ± 7.7
303.15 K	105.2 ± 1.6	135.5 ± 2.1	157.8 ± 2.5	184 ± 2.9	211.9 ± 3.3	264.3 ± 4.1	312.2 ± 4.8	370.1 ± 5.7	436.2 ± 6.8	501.2 ± 7.8
308.15 K	105.6 ± 1.6	136.1 ± 2.1	158.5 ± 2.5	184.9 ± 2.9	212.9 ± 3.3	265.7 ± 4.1	313.9 ± 4.9	372.2 ± 5.8	438.7 ± 6.8	504.1 ± 7.8
313.15 K	106.1 ± 1.7	136.7 ± 2.1	159.2 ± 2.5	185.7 ± 2.9	213.9 ± 3.3	267.1 ± 4.1	315.7 ± 4.9	374.4 ± 5.8	441.3 ± 6.8	507.1 ± 7.9
318.15 K	106.5 ± 1.7	137.4 ± 2.1	159.9 ± 2.5	186.6 ± 2.9	215.1 ± 3.3	268.5 ± 4.2	317.5 ± 4.9	376.7 ± 5.8	443.9 ± 6.9	510.2 ± 7.9
323.15 K	107 ± 1.7	138 ± 2.1	160.7 ± 2.5	187.5 ± 2.9	216.2 ± 3.4	269.9 ± 4.2	319.3 ± 4.9	379 ± 5.9	446.6 ± 6.9	513.3 ± 8
